The values that follow are results of earlier work, collected in patent US12692503B2, “Generation of acyl amino acids” (Modular Genetics, Inc., priority 2007, dated 2026).

*1 amine or outer side, *2 acyl side, *3 side chain or, on linkers, in order; H or OH if unused. Where a SMILES comes first, the peptide text is derived from it. Bridges are numbered along the chain shown (N, C = ends). [ ]: non-standard residue; d: D form. X1 = CC(C)CCCCCCCCC[C@H](CC(=O)[*:1])O[*:2]

For this data set the following is noted: organic solvents and water.

As for `CC(C)CCCCCCCCC[C@@H]1CC(=O)N[C@@H](CCC(=O)O)C(=O)N[C@@H](CC(C)C)C(=O)N[C@H](CC(C)C)C(=O)N[C@@H](C(C)C)C(=O)N[C@@H](CC(=O)O)C(=O)N[C@H](CC(C)C)C(=O)N[C@@H](CC(C)C)C(=O)O1` [surfactin] (EL[dL]VD[dL]L; linker N-C via X1), the solubility entry was “soluble in both organic solvents and water”.
